{"source": "patent US20040171518A1", "about": "“Compounds for protein stabilization and methods for their use” (Medtronic MiniMed, Inc., priority 2003, published 2004)", "origin": "cited, not measured here", "note": "Where two headings read alike, the source gives them in different places."}
{"molecule": "O=C(O)CCC(=O)NCCCCC1NC(=O)C(CCCCNC(=O)CCC(=O)O)NC1=O", "note": "(centres unmarked) [2,5-diketo-3,6-di(4-succinylaminobutyl)piperazine]", "values": [{"measurement": "solubility", "setting": "acidic aqueous solutions", "result": "quite insoluble"}, {"measurement": "solubility", "setting": "weakly alkaline aqueous solution", "result": "readily soluble"}]}
